# What was measured:
# [1] = tested on: amyloidogenic aggregates (Aβ, ASYN, TTR, TDP43, 3RTau, and 4RTau); assay: In vitro binding to amyloidogenic aggregates, summary statement; settings: excitation 450 nm or 488 nm
# Protocol: Amyloidogenic proteins (synthetic aggregated amyloid beta (Aβ), α-synuclein (ASYN), transthyretin (TTR), TAR DNA-binding protein 43 (TDP43), and phosphorylated tau (TAU)) were aggregated in vitro using the following procedure. The amyloidogenic protein was removed from the freezer and allowed to warm to room temperature, then 1 mg of amyloidogenic protein was dissolved in 215 μL of ddH2O for about 10-20 mins at room temperature. To the resulting solution, 2 mL of ddH2O was added to provide a 100 μM stock solution. A 100 μL aliquot was sampled and frozen (non-aggregated sample). The tubes were placed in a thermoshaker at 350 rpm for 3 days. Care was taken to avoid generating bubbles. Protein aggregation was confirmed by measuring binding to Thioflavin T (ThT). Aggregated protein was then portioned into 150 μL aliquots and stored at −80° C.
# The fluorescent emission spectra were measured as follows to determine binding of synthetic aggregated amyloid beta (Aβ), α-synuclein (ASYN), transthyretin (TTR), TAR DNA-binding protein 43 (TDP43), and phosphorylated tau (TAU) to test compounds described herein. […] Using a cuvette, the fluorescent emission spectra were measured for each test compound+Aβ solution, employing a DMSO/PBS solution as a blank. […] The fold increase at maximum emission (compound+Aβ/compound) is calculated for each test compound. […]
# [2] = target: T1, synthetic aggregated amyloid beta (Aβ) (Homo sapiens, UniProt P05067); assay: Fluorescence emission spectra of compounds with and without aggregated amyloid beta; type: binding; settings: for Fold Increase at maximum emission (compound+Aβ/compound): 4 μM compound, 5 μM aggregated Aβ in 1×PBS; for Peak emission: aggregated Aβ
# T1 construct: synthetic aggregated amyloid beta (Aβ)
# T1 sequence (P05067 672-713 limits assumed): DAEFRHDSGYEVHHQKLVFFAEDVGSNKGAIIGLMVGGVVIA
# Protocol: (§1) Emission spectra for compound 1 and compound 1a were collected after incubation of the compounds with and without aggregated amyloidogenic protein at specific excitation wavelengths (450 nm and 488 nm) employed in standard ocular imaging equipment. Amyloidogenic proteins (synthetic aggregated amyloid beta (Aβ), α-synuclein (ASYN), transthyretin (TTR), TAR DNA-binding protein 43 (TDP43), and phosphorylated tau (TAU)) were aggregated in vitro using the following procedure. The amyloidogenic protein was removed from the freezer and allowed to warm to room temperature, then 1 mg of amyloidogenic protein was dissolved in 215 μL of ddH2O for about 10-20 mins at room temperature. To the resulting solution, 2 mL of ddH2O was added to provide a 100 μM stock solution. A 100 μL aliquot was sampled and frozen (non-aggregated sample). The tubes were placed in a thermoshaker at 350 rpm for 3 days. Care was taken to avoid generating bubbles. Protein aggregation was confirmed by measuring binding to Thioflavin T (ThT). Aggregated protein was then portioned into 150 μL aliquots and stored at −80° C. The fluorescent emission spectra were measured as follows to determine binding of synthetic aggregated amyloid beta (Aβ), α-synuclein (ASYN), transthyretin (TTR), TAR DNA-binding protein 43 (TDP43), and phosphorylated tau (TAU) to test compounds described herein. The Shimadzu fluorimeter was turned on and allowed to warm up for ~60 minutes. The test compounds were then removed from the −20° C. freezer and were allowed to warm to room temperature. The 100 μM aggregated Aβ solution was then removed from the −80° C. freezer and also allowed to warm to room temperature. 250 μM solutions of each test compound in DMSO were then prepared. These were then used to prepare 4 μM solutions of each test compound, with and without 5 μM aggregated Aβ in 1×PBS, in triplicates. Using a cuvette, the fluorescent emission spectra were measured for each test compound+Aβ solution, employing a DMSO/PBS solution as a blank. Each sample was tested at an excitation of 450 nm and 488 nm. Fluorescent emission spectra were then collected for each 4 μM test compound solution alone. The resulting data were used to plot intensity vs. wavelength for each emission scan. The fold increase at maximum emission (compound+Aβ/compound) is calculated for each test compound.
# 3RTau = assay: Fluorescence emission spectra of compounds with and without aggregated 3RTau; type: binding
# Protocol: as §1
# transthyretin (TTR) = transthyretin (TTR) (Homo sapiens, UniProt P02766); assay: Fluorescence emission spectra of compounds with and without aggregated transthyretin; type: binding
# Protocol: as §1
# [3] = target: TAR DNA-binding protein 43 (TDP43) (Homo sapiens, UniProt Q13148); assay: Fluorescence emission spectra of compounds with and without aggregated TDP43
# TAR DNA-binding protein 43 (TDP43), sequence (Q13148 whole entry): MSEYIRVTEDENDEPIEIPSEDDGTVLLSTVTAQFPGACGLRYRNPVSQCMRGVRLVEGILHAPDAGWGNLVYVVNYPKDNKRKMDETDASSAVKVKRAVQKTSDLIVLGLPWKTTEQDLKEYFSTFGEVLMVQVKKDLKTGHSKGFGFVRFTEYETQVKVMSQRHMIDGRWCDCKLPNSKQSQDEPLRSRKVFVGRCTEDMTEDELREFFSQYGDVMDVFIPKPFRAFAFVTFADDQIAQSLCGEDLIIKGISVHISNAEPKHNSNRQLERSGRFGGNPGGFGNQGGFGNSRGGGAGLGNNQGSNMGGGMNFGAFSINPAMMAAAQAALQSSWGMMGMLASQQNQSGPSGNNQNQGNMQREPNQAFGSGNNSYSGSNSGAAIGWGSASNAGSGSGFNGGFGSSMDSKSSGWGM
# Protocol: as §1
# 4RTau = assay: Fluorescence emission spectra of compounds with and without aggregated 4RTau; type: binding
# Protocol: as §1
# α-synuclein (ASYN) = α-synuclein (ASYN) (Homo sapiens, UniProt P37840); assay: Fluorescence emission spectra of compounds with and without aggregated α-synuclein; type: binding
# Protocol: as §1
Binding to all amyloidogenic aggregates tested [1],Fold Increase at maximum emission (compound+Aβ/compound) ([2]; excitation 450 nm),Peak emission ([2]; excitation 450 nm),Fold Increase at maximum emission (compound+Aβ/compound) ([2]; excitation 488 nm),Peak emission ([2]; excitation 488 nm),Fold Increase at maximum emission (transthyretin (TTR); excitation 450 nm),Peak emission (transthyretin (TTR); excitation 450 nm),Fold Increase at maximum emission (transthyretin (TTR); excitation 488 nm),Peak emission (transthyretin (TTR); excitation 488 nm),Fold Increase at maximum emission ([3]; excitation 450 nm),Peak emission ([3]; excitation 450 nm),Fold Increase at maximum emission ([3]; excitation 488 nm),Peak emission ([3]; excitation 488 nm),Fold Increase at maximum emission (α-synuclein (ASYN); excitation 450 nm),Peak emission (α-synuclein (ASYN); excitation 450 nm),Fold Increase at maximum emission (α-synuclein (ASYN); excitation 488 nm),SMILES,Fold Increase at maximum emission (3RTau; excitation 450 nm),Fold Increase at maximum emission (3RTau; excitation 488 nm),Fold Increase at maximum emission (4RTau; excitation 450 nm),Fold Increase at maximum emission (4RTau; excitation 488 nm),other results
successfully bound,10.16,559,9.11,556,5.18,553,7.21,560,15.33,547,18.32,556,105.50,552,109.97,"N#C/C(=C\c1ccc2cc(N3CCCCC3)ccc2c1)C(=O)CCCOCCOCCO [Compound 1, (E)-6-(2-(2-hydroxyethoxy)ethoxy)-3-oxo-2-((6-(piperidin-1-yl)naphthalen-2-yl)methylene)hexanenitrile]",68.04,69.31,14.35,29.25,Peak emission (α-synuclein (ASYN); excitation 488 nm): 557
successfully bound,9.48,554,19.60,559,4.67,550,7.35,557,23.23,551,20.40,551,120.92,554,190.64,"N#C/C(=C\c1ccc2cc(N3CCCCC3)ccc2c1)C(=O)CCC(O)CO (stereo not drawn) [Compound 1a, (E)-6,7-dihydroxy-3-oxo-2-((6-(piperidin-1-yl)naphthalen-2-yl)methylene)heptanenitrile]",84.37,103.65,22.19,22.48,Peak emission (α-synuclein (ASYN); excitation 488 nm): 554
